Patent US4200635A, “Antibacterially active amides” (Beecham Group Limited, priority 1977, dated 1980)
Values after ≈ are worked out from the molar mass of the structure shown. Read-outs that look alike come from different tables or passages of the source.

Tests used:
[1] = tested on: Pasteurella multocida 1633; test: MIC, serial dilution in nutrient agar, human bacteria; format: cell-based; settings: nutrient agar containing 5% chocolated horse blood
[2] = tested on: Haemophilus influenzae Q1; test: as above; format: cell-based; settings: nutrient agar containing 5% chocolated horse blood
[3] = tested on: Haemophilus influenzae Wy21; test: as above; format: cell-based
[4] = tested on: Neisseria flavescens 8263; test: as above; format: cell-based; settings: nutrient agar containing 5% chocolated horse blood
Bacillus subtilis 6633 = test: as above; format: cell-based
Staph. aureus Oxford = test: as above; format: cell-based; settings: Staphylococcus aureus; Staph. aureus Oxford; nutrient agar containing 5% chocolated horse blood; read-out: M.I.C.
Staph. aureus Russell = test: as above; format: cell-based; settings: Staphylococcus aureus; Staph. aureus Russell; nutrient agar containing 5% chocolated horse blood; read-out: M.I.C.
Strep. pneumoniae CN33 = test: as above; format: cell-based; settings: Streptococcus pneumoniae
Bord. bronchiseptica BO9 = test: MIC, veterinary bacteria; format: cell-based; settings: Bordetella bronchiseptica
Past. multocida PAI = test: MIC, veterinary bacteria; format: cell-based; settings: Pasteurella multocida
Past. haemolytica PA5 = test: MIC, veterinary bacteria; format: cell-based; settings: Mannheimia haemolytica
Staph. aureus B4 = test: MIC, veterinary bacteria; format: cell-based; settings: Staphylococcus aureus; Staph. aureus B4; read-out: M.I.C.
Staph. aureus 152 = test: MIC, veterinary bacteria; format: cell-based; settings: Staphylococcus aureus
Strep. uberis SPU 1 = test: MIC, veterinary bacteria; format: cell-based; settings: Streptococcus uberis, SPU1; Strep. uberis SPU 1; read-out: M.I.C.
[5] = tested on: Strep. dysgalactiae SPD 1; test: MIC, veterinary bacteria; format: cell-based; settings: Streptococcus dysgalactiae, SPD1; Strep. dysgalactiae SPD 1; read-out: M.I.C.
M. dispar NCTC 10125 = test: in vitro MIC, anti-mycoplasmal activity; format: cell-based; settings: Friis' broth, microtiter method
Source text: (§1) Tables 3 and 4 show the in vitro MIC values (μg/ml) of the compounds of Examples 1 to 9 against a number of mycoplasma organisms, determined in Friis' broth using the microtiter method.

M. fermentans MWKL4 = test: in vitro MIC, anti-mycoplasmal activity; format: cell-based; settings: Mycoplasmopsis fermentans, Friis' broth, microtiter method
Source text: as §1

M. pulmonis JB = test: in vitro MIC, anti-mycoplasmal activity; format: cell-based; settings: Mycoplasmopsis pulmonis, Friis' broth, microtiter method
Source text: as §1

[6] = tested on: M. suipneumoniae J2206/183b; test: in vitro MIC, anti-mycoplasmal activity; format: cell-based; settings: Mesomycoplasma hyopneumoniae, Friis' broth, microtiter method
Source text: as §1

M. pneumoniae 427a = test: in vitro MIC, anti-mycoplasmal activity; format: cell-based; settings: Mycoplasmoides pneumoniae, Friis' broth, microtiter method
[7] = tested on: Neisseria catarrhalis 1502; test: MIC, serial dilution in nutrient agar, human bacteria; format: cell-based; settings: Neisseria catarrhalis 1502; nutrient agar containing 5% chocolated horse blood; read-out: M.I.C.
M. suipneumoniae Str. 11 = test: in vitro MIC, anti-mycoplasmal activity; format: cell-based; settings: Mesomycoplasma hyopneumoniae, Friis' broth, microtiter method
M. dispar H225 = test: in vitro MIC, anti-mycoplasmal activity; format: cell-based
Source text: as §1

M. pneumoniae ATCC 15492 = test: in vitro MIC, anti-mycoplasmal activity; format: cell-based; settings: Mycoplasmoides pneumoniae, ATCC15492, Friis' broth, microtiter method
Source text: as §1

[8] = tested on: certain Gram-positive and Gram-negative organisms; settings: statement about monic acid A and its esters, earlier British applications; cited from earlier work
[9] = Haemophilus influenzae Wy21, nutrient agar containing 5% chocolated horse blood, read-out: M.I.C.
[10] = Bacillus subtilis 6633, nutrient agar containing 5% chocolated horse blood, read-out: M.I.C.
[11] = Past. multocida PAI, read-out: M.I.C.
[12] = Past. haemolytica PA5, read-out: M.I.C.
[13] = Strep. pneumoniae CN33, nutrient agar containing 5% chocolated horse blood, read-out: M.I.C.

SMILES | MIC [1] [µg/mL] | MIC [2] [µg/mL] | MIC [3, 9] [µg/mL] | MIC [4] [µg/mL] | MIC (Bacillus subtilis 6633; [10]) [µg/mL] | MIC (Staph. aureus Oxford) [µg/mL] | MIC (Staph. aureus Russell) [µg/mL] | MIC (Bord. bronchiseptica BO9; BO9) [µg/mL] | MIC (Past. multocida PAI; [11]) [µg/mL] | MIC (Past. haemolytica PA5; [12]) [µg/mL] | MIC (Staph. aureus B4) [µg/mL] | MIC (Staph. aureus 152) [µg/mL] | MIC (Strep. uberis SPU 1) [µg/mL] | MIC [5] [µg/mL] | MIC (M. dispar NCTC 10125) [µg/mL] | MIC (M. fermentans MWKL4) [µg/mL] | MIC (M. pulmonis JB) [µg/mL] | MIC [6] [µg/mL] | MIC (M. pneumoniae 427a) [µg/mL] | MIC (Strep. pneumoniae CN33; [13]) [µg/mL] | also measured
CC(=CC(N)=O)CC1OCC(CC2OC2C(C)C(C)O)C(O)C1O (stereo not drawn) [Example 1, Primary amide of monic acid A] | 10 (≈ 29.1 µM) | 5 (≈ 14.6 µM) | 10 (≈ 29.1 µM) | 2.5 (≈ 7.28 µM) | 100 (≈ 291 µM) | 50 (≈ 146 µM) | 100 (≈ 291 µM) | 40 (≈ 116 µM) | 40 (≈ 116 µM) | 40 (≈ 116 µM) | > 80 | > 80 | 20 (≈ 58.2 µM) | 20 (≈ 58.2 µM) | 1.9 (≈ 5.53 µM) | 15.6 (≈ 45.4 µM) | 15.6 (≈ 45.4 µM) | 7.8 (≈ 22.7 µM) | 250 (≈ 728 µM) |  | MIC (Strep. pneumoniae CN33; CN33): 100 µg/mL (≈ 291 µM)
CNC(=O)C=C(C)CC1OCC(CC2OC2C(C)C(C)O)C(O)C1O (stereo not drawn) [Example 2, N-Methylamide of monic acid A] | 2.5 (≈ 6.99 µM) | 0.2 (≈ 0.56 µM) |  | 1 (≈ 2.8 µM) | 10 (≈ 28 µM) | 2.5 (≈ 6.99 µM) | 25 (≈ 69.9 µM) |  |  |  |  |  |  |  | < 0.5 | 7.8 (≈ 21.8 µM) | 1 (≈ 2.8 µM) | < 0.5 | 125 (≈ 350 µM) | 25 (≈ 69.9 µM) | 
COC(=O)CNC(=O)C=C(C)CC1OCC(CC2OC2C(C)C(C)O)C(O)C1O (stereo not drawn) [Example 3, Methoxycarbonylmethylamide of monic acid A] | 12.5 (≈ 30.1 µM) | 1.2 (≈ 2.89 µM) | 1.2 (≈ 2.89 µM) | 25 (≈ 60.2 µM) | 25 (≈ 60.2 µM) | 25 (≈ 60.2 µM) | 125 (≈ 301 µM) | 5 (≈ 12 µM) | 10 (≈ 24.1 µM) |  | 40 (≈ 96.3 µM) | > 80 | 5 (≈ 12 µM) | 1.25 (≈ 3.01 µM) | < 0.5 | < 0.5 | 62.5 (≈ 150 µM) | 7.8 (≈ 18.8 µM) | 250 (≈ 602 µM) | 25 (≈ 60.2 µM) | MIC (Past. haemolytica PA5; PA5): 5 µg/mL (≈ 12 µM)
CC(=CC(=O)N(C)C)CC1OCC(CC2OC2C(C)C(C)O)C(O)C1O (stereo not drawn) [Example 4, Dimethylamide of monic acid A] | 2.5 (≈ 6.73 µM) | 2.5 (≈ 6.73 µM) | 2.5 (≈ 6.73 µM) |  | 25 (≈ 67.3 µM) | 5 (≈ 13.5 µM) | 25 (≈ 67.3 µM) |  | 5 (≈ 13.5 µM) | 40 (≈ 108 µM) | 20 (≈ 53.8 µM) | > 80 | 20 (≈ 53.8 µM) | 20 (≈ 53.8 µM) | 2.5 (≈ 6.73 µM) | 1.25 (≈ 3.36 µM) | 5 (≈ 13.5 µM) | > 10 | > 10 | 50 (≈ 135 µM) | MIC [7]: 2.5 µg/mL (≈ 6.73 µM); MIC (Bord. bronchiseptica BO9; Bord. bronchiseptica BO9, read-out: M.I.C.): 40 µg/mL (≈ 108 µM); MIC (M. suipneumoniae Str. 11): 10 µg/mL (≈ 26.9 µM); MIC (M. dispar H225; M. dispar H225, Friis' broth, microtiter method, read-out: M.I.C.): 5 µg/mL (≈ 13.5 µM); MIC (M. pneumoniae ATCC 15492): > 10 µg/mL
CC(=CC(=O)N1CCOCC1)CC1OCC(CC2OC2C(C)C(C)O)C(O)C1O (stereo not drawn) [Example 6, Morpholinyl amide of monic acid A] | 1 (≈ 2.42 µM) | 0.2 (≈ 0.484 µM) |  |  |  | 10 (≈ 24.2 µM) | 50 (≈ 121 µM) | 20 (≈ 48.4 µM) |  | 20 (≈ 48.4 µM) | 20 (≈ 48.4 µM) | > 80 | 2.5 (≈ 6.05 µM) | 2.5 (≈ 6.05 µM) | 2.5 (≈ 6.05 µM) | 0.625 (≈ 1.51 µM) | 0.156 (≈ 0.377 µM) | 10 (≈ 24.2 µM) | > 10 | 10 (≈ 24.2 µM) | MIC ([3]; Haemophilus influenzae, WY21): 0.5 µg/mL (≈ 1.21 µM); MIC [7]: 5 µg/mL (≈ 12.1 µM); MIC (Bacillus subtilis 6633; Bacillus subtilis, 6633): 10 µg/mL (≈ 24.2 µM); MIC (Past. multocida PAI): 0.625 µg/mL (≈ 1.51 µM); MIC (M. suipneumoniae Str. 11): 2.5 µg/mL (≈ 6.05 µM); MIC (M. dispar H225): 1.25 µg/mL (≈ 3.02 µM); MIC (M. pneumoniae ATCC 15492): > 10 µg/mL
CC(=CC(=O)O)CC1OCC(CC2OC2C(C)C(C)O)C(O)C1O (stereo not drawn) [monic acid A] |  |  |  |  |  |  |  |  |  |  |  |  |  |  |  |  |  |  |  |  | antibacterial activity [8]: does not appear to have antibacterial activity
